Reference: the supplement of paper PMC10307832

How the values were obtained:
Experiment in all cases: relative viability (nuclei count vs DMSO), 5 days (fraction); higher = more cells survive
Alpelisib + Lapatinib = compound: Cc1nc(NC(=O)N2CCC[C@H]2C(N)=O)sc1-c1ccnc(C(C)(C)C(F)(F)F)c1 [Alpelisib] + CS(=O)(=O)CCNCc1ccc(-c2ccc3ncnc(Nc4ccc(OCc5cccc(F)c5)c(Cl)c4)c3c2)o1 [Lapatinib] (partner 2 µM)
Outline: (§1)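 Values are medians from duplicate plates. Each reflects relative viability, defined as the nuclei count of treated wells over that of vehicle wells. Lung cancer cell lines in 1536-well plates were pin-tool dosed one day after seeding with one drug alone or with a fixed anchor-drug dose plus five library-drug doses (not always all listed) in √10 steps, then fixed, stained and imaged at 4× after 5 days.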

OSI-027 + Bortezomib = compound: COc1cccc2cc(-c3nc([C@H]4CC[C@H](C(=O)O)CC4)n4ncnc(N)c34)[nH]c12 [OSI-027] + CC(C)C[C@H](NC(=O)[C@H](Cc1ccccc1)NC(=O)c1cnccn1)B(O)O [Bortezomib] (partner 0.002 µM)
Outline: as §1

Vemurafenib + Navitoclax = compound: CCCS(=O)(=O)Nc1ccc(F)c(C(=O)c2c[nH]c3ncc(-c4ccc(Cl)cc4)cc23)c1F [Vemurafenib] + CC1(C)CCC(c2ccc(Cl)cc2)=C(CN2CCN(c3ccc(C(=O)NS(=O)(=O)c4ccc(N[C@H](CCN5CCOCC5)CSc5ccccc5)c(S(=O)(=O)C(F)(F)F)c4)cc3)CC2)C1 [Navitoclax] (partner 0.5 µM)
Outline: as §1

OSI-027 + AZD7762 = compound: COc1cccc2cc(-c3nc([C@H]4CC[C@H](C(=O)O)CC4)n4ncnc(N)c34)[nH]c12 [OSI-027] + NC(=O)Nc1cc(-c2cccc(F)c2)sc1C(=O)N[C@H]1CCCNC1 [AZD7762] (partner 0.2 µM)
Outline: as §1

Row | Cell Line | relative viability (Alpelisib + Lapatinib; first compound 0.04 µM) | relative viability (Alpelisib + Lapatinib; first compound 0.1265 µM) | relative viability (Alpelisib + Lapatinib; first compound 0.4 µM) | relative viability (Alpelisib + Lapatinib; first compound 1.265 µM) | relative viability (Alpelisib + Lapatinib; first compound 4 µM) | relative viability (OSI-027 + Bortezomib; first compound 0.01 µM) | relative viability (OSI-027 + Bortezomib; first compound 0.03162 µM) | relative viability (OSI-027 + Bortezomib; first compound 0.1 µM) | relative viability (OSI-027 + Bortezomib; first compound 0.3162 µM) | relative viability (OSI-027 + Bortezomib; first compound 1 µM) | relative viability (Vemurafenib + Navitoclax; first compound 0.03162 µM) | relative viability (Vemurafenib + Navitoclax; first compound 0.1 µM) | relative viability (Vemurafenib + Navitoclax; first compound 1 µM) | relative viability (OSI-027 + AZD7762; first compound 0.01 µM) | relative viability (OSI-027 + AZD7762; first compound 0.03162 µM) | relative viability (OSI-027 + AZD7762; first compound 0.1 µM) | relative viability (OSI-027 + AZD7762; first compound 0.3162 µM) | relative viability (OSI-027 + AZD7762; first compound 1 µM) | relative viability (Vemurafenib + Navitoclax; first compound 0.3162 µM)
1 | NCI-H647 | 0.959 | 1.14 | 1.35 | 0.99 | 0.756 | 0.992 | 0.981 | 1 | 0.884 | 0.432 | 1.05 | 0.913 | 1.23 | 0.402 | 0.558 | 0.362 | 0.314 | 0.348 | –
2 | NCI-H727 | 0.831 | 0.766 | 0.906 | 0.578 | 0.443 | 0.915 | 0.9 | 0.896 | 0.766 | 0.682 | 0.518 | 0.366 | 0.438 | 0.557 | 0.568 | 0.41 | 0.576 | 0.546 | 0.613
3 | NCI-H838 | 0.877 | 1.03 | 1.01 | 0.774 | 0.696 | 0.751 | 0.71 | 0.78 | 0.531 | 0.325 | 1.07 | 1.21 | 1.27 | 0.923 | 0.838 | 0.855 | 0.806 | 0.801 | –
4 | NCI-H1355 | 0.963 | 0.961 | 0.985 | 0.918 | 0.806 | 1.24 | 1.19 | 1.01 | 0.926 | 0.528 | 0.895 | 0.96 | 0.976 | 0.703 | 0.88 | 0.753 | 0.628 | 0.38 | 0.99
5 | NCI-H1437 | 0.756 | 0.91 | 0.772 | 0.616 | 0.602 | 0.43 | 0.409 | 0.538 | 0.487 | 0.258 | 1.01 | 1.06 | 1.09 | 1.11 | 1.02 | 1.14 | 1 | 0.566 | 1.05
6 | NCI-H1651 | 0.773 | 0.803 | 0.943 | 0.646 | 0.618 | 0.929 | 0.954 | 0.884 | 0.929 | 0.737 | 1.02 | 0.976 | 0.93 | 0.471 | 0.415 | 0.425 | 0.465 | 0.417 | 1.07
7 | NCI-H1666 | 0.668 | 0.381 | 0.682 | 0.475 | 0.356 | 0.707 | 0.9 | 0.688 | 0.425 | 0.372 | 0.932 | – | 0.972 | 0.837 | 0.707 | 0.763 | 0.766 | 0.585 | 1.06
8 | NCI-H1703 | 0.949 | 0.886 | 0.789 | 0.526 | 0.678 | 0.361 | 0.302 | 0.238 | 0.233 | 0.187 | 1.19 | 1.24 | 0.933 | – | 0.0974 | – | 0.127 | 0.119 | 0.863
9 | NCI-H1734 | 1.09 | 0.989 | 1.11 | 0.771 | 0.373 | 0.958 | 0.809 | 0.852 | 0.834 | 0.47 | 0.787 | 0.77 | 0.823 | 0.619 | 0.532 | 0.537 | 0.408 | 0.251 | 0.784
10 | NCI-H1755 | 1.03 | 0.962 | 1.11 | 0.911 | 0.851 | 1 | 0.96 | 0.983 | 0.89 | 0.556 | 0.937 | 0.953 | 0.998 | 0.442 | 0.432 | 0.574 | 0.507 | 0.396 | 1.05
11 | NCI-H1792 | 0.923 | 0.796 | 0.863 | 0.773 | 0.532 | 1.03 | 0.688 | 0.858 | 0.899 | 0.212 | 0.565 | 0.61 | 0.593 | 0.673 | 0.704 | 0.682 | 0.668 | 0.192 | 0.439
12 | NCI-H1915 | 1.01 | 0.979 | 0.957 | 0.949 | 0.944 | 1.04 | 0.995 | 1.04 | 0.968 | 0.898 | 0.757 | 0.795 | 0.789 | 0.728 | 0.792 | 0.72 | 0.592 | 0.653 | 0.745
13 | NCI-H1975 | 0.874 | 0.862 | 0.889 | 0.619 | 0.483 | 0.41 | 0.337 | 0.464 | 0.318 | 0.274 | 0.94 | 1.11 | 1.03 | 0.708 | 0.697 | 0.545 | 0.609 | 0.591 | 0.952
14 | NCI-H1993 | 0.775 | 0.676 | 0.913 | 0.774 | 0.711 | 1.11 | 0.898 | 0.788 | 0.625 | 0.542 | 0.857 | – | 1.08 | 0.777 | 0.728 | 0.606 | 0.542 | 0.416 | 1.25
15 | NCI-H2085 | 0.742 | 0.624 | 0.839 | 0.635 | 0.623 | 1.11 | 0.965 | 0.95 | 0.977 | 0.853 | 1.05 | 0.972 | 1.09 | 0.978 | 0.925 | 0.953 | 0.97 | 0.61 | 1.23
16 | NCI-H2087 | 1.02 | 0.978 | 1.26 | 0.703 | 0.97 | 0.82 | 0.879 | 0.938 | 0.859 | 0.412 | 0.936 | 0.915 | 0.987 | 1.32 | 1.1 | 1.4 | 1.1 | 0.929 | –
17 | NCI-H2126 | 0.75 | 0.704 | 0.701 | 0.567 | 0.499 | 1.02 | 1.13 | 1.05 | 0.989 | 0.87 | 0.808 | 0.778 | 0.83 | 0.975 | 0.954 | 0.998 | 0.868 | 0.819 | 0.825
